Test results: article PMC8283759, “A Flavoprotein Dioxygenase Steers Bacterial Tropone Biosynthesis via Coenzyme A-Ester Oxygenolysis and Ring Epoxidation” (Journal of the American Chemical Society, 2021)

Molecular target: T1, TdaEBp (Burkholderia plantarii, UniProt A0A0B6RWE3)
T1 construct: gene BGL_1c08010; heterologously produced and purified, N-terminal GB1 (subunit B of protein G) and C-terminal polyhistidine tag
Experiment: UV-vis of purified protein (c280/c450)
Format: binding
Conditions: loosely bound, co-purified; partial occupancy

T1 sequence (A0A0B6RWE3 entry or part of it): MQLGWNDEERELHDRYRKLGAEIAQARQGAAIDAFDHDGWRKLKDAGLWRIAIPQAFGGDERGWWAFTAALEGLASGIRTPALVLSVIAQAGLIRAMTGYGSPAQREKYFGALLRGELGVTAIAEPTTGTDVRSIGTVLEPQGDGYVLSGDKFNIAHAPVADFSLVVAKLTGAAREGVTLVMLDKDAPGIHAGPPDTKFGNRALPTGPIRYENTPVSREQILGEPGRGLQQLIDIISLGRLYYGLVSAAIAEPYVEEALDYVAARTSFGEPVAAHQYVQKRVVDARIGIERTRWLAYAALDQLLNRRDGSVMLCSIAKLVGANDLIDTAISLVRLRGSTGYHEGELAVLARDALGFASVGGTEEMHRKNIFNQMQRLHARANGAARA

For `Cc1cc2nc3c(=O)[nH]c(=O)nc-3n(C[C@H](O)[C@H](O)[C@H](O)COP(=O)(O)OP(=O)(O)OC[C@H]3O[C@@H](n4cnc5c(N)ncnc54)[C@H](O)[C@@H]3O)c2cc1C` [FAD], the “UV-vis of purified protein (c280/c450)” value was “TdaE^Bp was weakly yellow due to a loosely bound FAD cofactor”.
